In ChEMBL document CHEMBL1152246, “Design, synthesis and RNase A inhibition activity of catechin and epicatechin and nucleobase chimeric molecules” (Bioorg Med Chem Lett, 2008):
The source made the active and inactive calls. The calls are words filed in the database; no cut-off is given here.

What was measured:
[1] = biological target: T1, Ribonuclease pancreatic (Homo sapiens) (UniProt P07998); test: Inhibition of RNase A assessed as degradation of 28s and 18s rRNA at 0.412 mM after 6 hrs by agarose gel based assay
T1 sequence (whole entry): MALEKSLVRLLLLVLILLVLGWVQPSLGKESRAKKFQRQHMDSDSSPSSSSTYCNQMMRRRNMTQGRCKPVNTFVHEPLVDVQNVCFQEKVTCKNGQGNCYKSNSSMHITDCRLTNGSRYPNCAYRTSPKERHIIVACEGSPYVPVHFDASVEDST

[2] = biological target: T1, Ribonuclease pancreatic (Homo sapiens); test: Inhibition of RNase A assessed as degradation of 28s and 18s rRNA at 0.476 mM after 6 hrs by agarose gel based assay

Activity [1] | Activity [2] | SMILES
inactive | – | CCOC(=O)Cn1c(=O)c(C)cn(CCn2cc(CO[C@@H]3Cc4c(O)cc(O)cc4O[C@@H]3c3ccc(O)c(O)c3)nn2)c1=O
– | Active | Nc1ncnc2c1ncn2CCn1cc(CO[C@H]2Cc3c(O)cc(O)cc3O[C@@H]2c2ccc(O)c(O)c2)nn1
– | Active | Nc1ncnc2c1ncn2CCn1cc(CO[C@@H]2Cc3c(O)cc(O)cc3O[C@@H]2c2ccc(O)c(O)c2)nn1
inactive | – | CCOC(=O)Cn1c(=O)c(C)cn(CCn2cc(CO[C@H]3Cc4c(O)cc(O)cc4O[C@@H]3c3ccc(O)c(O)c3)nn2)c1=O
